Experiments:
Tyk2 = Tyk2 (Homo sapiens, UniProt P29597); assay: Inhibition of JAK kinase activity, EZ Reader microfluidic phosphorylation of peptide substrate: Tyk2; assay type: biochemical; details: Tyk2 kinase 1 nM; highest final concentration 10 μM, 1:3 serial dilution, 8 points, duplicates
Text: (§1) EZ Reader available from PerkinElmer can be used for detecting the phosphorylation of polypeptide substrates catalyzed by kinases. This device is based on microfluidic separation technology, and can directly detect fluorescence labeled substrates and products. The separation step is achieved in a microfluidic chip by controlling the pressure and electric field intensity. In a kinase experiment, the product conversion rate is generally controlled at 20-30%. This biological assay method is used for identifying the inhibitory effect of the compounds on JAK.
(§2) The compound powder was dissolved in DMSO, sealed and stored in a refrigerator at −20° C. The in-house compound Ref1 was used as a positive control for testing of JAK1, JAK2 and Tyk2, and Ref2 was used as a positive control for testing of JAK3.
(§3) • S2.1. 1M HEPES buffer: 0.5M HEPES free acid and 0.5M HEPES sodium salt are weighed, added into ultrapure water for dissolution, brought to a desired volume, filtered and stored in a refrigerator at 4° C. • S2.2. 40 mM ATP solution: dissolved in a 50 mM HEPES buffer solution, prepared into 40 mM, aliquoted, and cryopreserved in a refrigerator at −20° C. • S2.3. 0.5% Tween 20: 100% Tween 20 was diluted with ultrapure water, and stored in a refrigerator at 4° C. • S2.4. 35% bovine serum albumin: a 35% bovine serum albumin solution is prepared in ultrapure water, aliquoted, and stored in a refrigerator at −20° C. • S2.5. 1M dithiothreitol solution: dithiothreitol is formulated into a 1M solution with ultrapure water, aliquoted, and stored in a refrigerator at −20° C. • S2.6. 0.5 mM Jaktide Peptide substrate solution: it is dissolved in 50 mM HEPES to 0.5 mM, aliquoted, and stored in a refrigerator at −20° C. • S2.7. 0.5 mM IRStide Peptide substrate solution: it is dissolved in 50 mM HEPES to 0.5 mM, aliquoted, and stored in a refrigerator at −20° C. • S2.8. Assay Buffer: 20 mM HEPES buffer, pH 7.4, 10 mM magnesium chloride, 0.01% bovine serum albumin BSA, 0.0005% Tween-20, and a 1 mM dithiothreitol solution. • S2.9. Stop Buffer: 180 mM HEPES buffer, 20 mM ethylenediamine tetraacetic acid (EDTA), and 0.2% Coating Reagent 3. • S2.10. Separation Buffer: 100 mM HEPES buffer, 10 mM EDTA, 0.0005% Tween 20, 0.1% Coating Reagent 3, and 1% dimethyl sulfoxide. 3. Experimental Procedures • S3.1. Preparation of compound plate
(§4) The compound is dissolved in dimethyl sulfoxide to 10 mM, a certain volume is taken and diluted to 0.6 mM, 10 μl of the diluted 0.6 mM solution is taken and added into a 384 microplate or 1:3 serial dilution, with a total of 8 concentration points. • S3.2. Compound layout
(§5) • positive control (HPE1): Ref1, final concentration: 10 μM • positive control (HPE1): Ref2, final concentration: 10 μM • negative control (ZPE): DMSO, with a final concentration of 1.6% • Compound: the highest final concentration at 10 μM, 1:3 serial dilution, with 8 concentration points and in duplicates. 4. Experimental operation steps • S4.1. the experimental plate was added with 250 nl of the compound per well with ECHO, and centrifuged at 1,000 rpm for 1 minute; • S4.2. the precipitate was added with 5 μl of the experimental buffer, and shaken for several seconds to fully dissolve the compound; • S4.3. the solution was added with 5 μl of a 3× substrate solution, as well as 5 μl of a 3× kinase solution, and centrifuged at 800 rpm for 1 minute; • S4.4. The final concentrations of JAK1, JAK2, JAK3 and Tyk2 kinases in the reaction system are 20, 1, 1 and 1 nM, respectively. • S4.5. the reaction system is incubated at room temperature, wherein the incubation time of each kinase is different, and there are differences in incubation time of different batches of kinases. • S4.6. When the reaction reaches 20%-30%, the reaction system is added with 15 μl of the stop buffer to terminate the reaction, and centrifuged at 1,000 rpm for 2 minutes. • S4.7. The precipitate was placed onto a EZ Reader for plate reading. • S4.8. […]

JAK1 = JAK1 (Homo sapiens, UniProt P23458); assay: Inhibition of JAK kinase activity, EZ Reader microfluidic phosphorylation of peptide substrate: JAK1; assay type: biochemical; details: JAK1 kinase 20 nM; highest final concentration 10 μM, 1:3 serial dilution, 8 points, duplicates
Text: as §1, §2, §3, §4, §5

Sequence of JAK1 (P23458 whole entry): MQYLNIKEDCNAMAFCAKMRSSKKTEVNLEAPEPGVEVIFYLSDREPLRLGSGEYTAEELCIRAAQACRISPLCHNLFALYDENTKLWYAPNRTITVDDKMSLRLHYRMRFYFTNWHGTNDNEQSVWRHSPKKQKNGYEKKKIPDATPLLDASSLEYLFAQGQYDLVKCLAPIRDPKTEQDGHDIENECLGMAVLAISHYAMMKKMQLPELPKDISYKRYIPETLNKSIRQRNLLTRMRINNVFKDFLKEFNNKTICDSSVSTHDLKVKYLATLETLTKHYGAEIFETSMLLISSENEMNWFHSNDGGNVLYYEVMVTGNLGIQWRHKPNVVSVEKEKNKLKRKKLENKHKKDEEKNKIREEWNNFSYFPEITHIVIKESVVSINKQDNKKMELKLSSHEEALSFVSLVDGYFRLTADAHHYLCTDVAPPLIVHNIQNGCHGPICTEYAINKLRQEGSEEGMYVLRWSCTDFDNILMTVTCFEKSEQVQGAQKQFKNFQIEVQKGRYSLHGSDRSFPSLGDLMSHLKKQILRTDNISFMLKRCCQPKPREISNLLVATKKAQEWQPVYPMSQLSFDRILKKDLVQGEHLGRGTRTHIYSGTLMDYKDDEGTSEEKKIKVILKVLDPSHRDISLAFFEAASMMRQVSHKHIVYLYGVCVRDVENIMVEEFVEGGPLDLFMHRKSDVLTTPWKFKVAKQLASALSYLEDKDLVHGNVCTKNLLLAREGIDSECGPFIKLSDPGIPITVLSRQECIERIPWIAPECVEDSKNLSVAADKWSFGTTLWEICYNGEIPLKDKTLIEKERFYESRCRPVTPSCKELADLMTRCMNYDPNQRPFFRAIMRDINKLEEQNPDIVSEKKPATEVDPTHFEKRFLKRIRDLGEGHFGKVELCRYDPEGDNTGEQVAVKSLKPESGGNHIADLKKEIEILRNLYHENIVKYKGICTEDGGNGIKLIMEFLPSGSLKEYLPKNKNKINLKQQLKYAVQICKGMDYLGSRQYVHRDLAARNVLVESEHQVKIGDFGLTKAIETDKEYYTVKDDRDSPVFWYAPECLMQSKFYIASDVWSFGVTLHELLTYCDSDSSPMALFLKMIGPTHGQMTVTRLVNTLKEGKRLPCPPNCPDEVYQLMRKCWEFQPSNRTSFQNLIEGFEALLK
Sequence of Tyk2 (P29597 whole entry): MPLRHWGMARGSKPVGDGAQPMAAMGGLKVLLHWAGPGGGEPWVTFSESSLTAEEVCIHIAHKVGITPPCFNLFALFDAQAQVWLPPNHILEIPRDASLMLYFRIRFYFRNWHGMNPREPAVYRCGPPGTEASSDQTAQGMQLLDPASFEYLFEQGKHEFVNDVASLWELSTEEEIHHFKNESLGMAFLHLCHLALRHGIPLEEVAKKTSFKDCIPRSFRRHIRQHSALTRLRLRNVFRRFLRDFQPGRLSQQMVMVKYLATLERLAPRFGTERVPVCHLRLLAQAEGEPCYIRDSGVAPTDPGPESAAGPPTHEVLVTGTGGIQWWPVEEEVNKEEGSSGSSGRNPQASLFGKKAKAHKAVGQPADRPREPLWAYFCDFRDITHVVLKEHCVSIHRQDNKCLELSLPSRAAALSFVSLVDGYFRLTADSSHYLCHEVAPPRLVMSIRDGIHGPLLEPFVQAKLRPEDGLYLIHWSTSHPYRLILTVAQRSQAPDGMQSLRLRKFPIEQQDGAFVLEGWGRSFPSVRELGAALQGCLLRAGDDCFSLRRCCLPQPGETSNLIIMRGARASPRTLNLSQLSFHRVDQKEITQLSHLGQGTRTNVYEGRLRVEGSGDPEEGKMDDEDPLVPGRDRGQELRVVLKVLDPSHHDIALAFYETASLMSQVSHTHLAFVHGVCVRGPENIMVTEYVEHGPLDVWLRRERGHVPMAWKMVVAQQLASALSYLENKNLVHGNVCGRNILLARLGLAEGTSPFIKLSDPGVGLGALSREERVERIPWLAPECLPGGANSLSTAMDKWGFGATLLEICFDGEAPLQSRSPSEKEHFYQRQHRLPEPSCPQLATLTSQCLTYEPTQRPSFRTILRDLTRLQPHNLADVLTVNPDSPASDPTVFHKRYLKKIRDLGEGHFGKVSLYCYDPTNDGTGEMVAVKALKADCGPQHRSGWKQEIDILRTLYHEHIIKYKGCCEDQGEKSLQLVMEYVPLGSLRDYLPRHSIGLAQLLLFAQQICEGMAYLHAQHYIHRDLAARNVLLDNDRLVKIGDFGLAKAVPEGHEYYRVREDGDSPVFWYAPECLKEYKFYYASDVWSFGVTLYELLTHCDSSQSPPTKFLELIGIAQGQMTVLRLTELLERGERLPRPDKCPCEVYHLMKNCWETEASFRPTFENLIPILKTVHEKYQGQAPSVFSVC

| IC50 (Tyk2) | IC50 (JAK1) | SMILES |
| --- | --- | --- |
| 0.1 to 1 µM | 0.1 to 1 µM | Cn1cc(Nc2nccc(-c3ccn(C4(CC#N)CN(S(=O)(=O)C5CC5)C4)n3)n2)cn1 [TDM-180915, 2-(1-(cyclopropylsulfonyl)-3-(3-(2-((1-methyl-1H-pyrazol-4-yl)amino)pyrimidin-4-yl)-1H-pyrazol-1-yl)azetidinpyridin-3-yl)acetonitrile] |
| < 0.1 µM | 0.1 to 1 µM | Cn1cc(Nc2nccc(-c3cnn(C4(CC#N)CN(S(=O)(=O)CC(F)(F)F)C4)c3)n2)cn1 [TDM-180928, 2-(3-(4-(2-((1-methyl-1H-pyrazol-4-yl)amino)pyrimidin-4-yl)-1H-pyrazol-1-yl)-1-((2,2,2-trifluoroethyl)sulfonyl)azetidin-3-yl)acetonitrile] |
| 1 to 10 µM | 1 to 10 µM | Cn1cc(Nc2nccc(-c3ccn(C4(CC#N)CN(S(=O)(=O)CC(F)(F)F)C4)n3)n2)cn1 [TDM-180918, 2-(3-(3-(2-((1-methyl-1H-pyrazol-4-yl)amino)pyrimidin-4-yl)-1H-pyrazol-1-yl)-1-((2,2,2-trifluoroethyl)sulfonyl)azetidin-3-yl)acetonitrile] |
| 0.1 to 1 µM | 0.1 to 1 µM | Cn1cc(Nc2nccc(-c3ccn(C4(CC#N)CN(C(=O)[C@H]5CC5(F)F)C4)c3)n2)cn1 [TDM-180938, (R)-2-(1-(2,2-difluorocyclopropane-1-carbonyl)-3-(3-(2-((1-methyl-1H-pyrazol-4-yl)amino)pyrimidin-4-yl)-1H-pyrrol-1-yl)azetidin-3-yl)acetonitrile] |
| 1 to 10 µM | 1 to 10 µM | Cn1cc(Nc2nccc(-c3ccn(C4(CC#N)CN(C(=O)C5CC5)C4)n3)n2)cn1 [TDM-180858, 2-(1-(cyclopropanecarbonyl)-3-(3-(2-((1-methy 1-1H-pyrazol-4-yl)amino)pyrimidin-4-yl)-1H-pyrazol-1-yl)azetidinpyridin-3-yl)acetonitrile] |
| 0.1 to 1 µM | 0.1 to 1 µM | Cn1cc(Nc2nccc(-c3ccc(C4(CC#N)CN(C(=O)CC(F)(F)F)C4)cc3)n2)cn1 [TDM-180873, 2-(3-(4-(2-((1-methyl-1H-pyrazol-4-yl)amino)pyrimidin-4-yl)phenyl)-1-(3,3,3-trifluoropropanol)azetidin-3-yl)acetonitrile] |
| < 0.1 µM | < 0.1 µM | Cn1cc(Nc2nccc(-c3ccn(C4(CC#N)CN(C(=O)[C@@H]5CC5(F)F)C4)c3)n2)cn1 [TDM-180937, (S)-2-(1-(2,2-difluorocyclopropane-1-carbonyl)-3-(3-(2-((1-methyl-1H-pyrazol-4-yl)amino)pyrimidin-4-yl)-1H-pyrrol-1-yl)azetidin-3-yl)acetonitrile] |
| 0.1 to 1 µM | 0.1 to 1 µM | Cn1cc(Nc2nccc(-c3ccc(C4(CC#N)CN(C(=O)CC#N)C4)cc3)n2)cn1 [TDM-180871, 3-(3-(cyanomethyl)-3-(4-(2-((1-methyl-1H-pyrazol-4-yl)amino)pyrimidin-4-yl)phenyl)azetidin-1-yl)-3-oxopropionitrile] |
| 1 to 10 µM | 1 to 10 µM | Cn1cc(Nc2nccc(-c3ccn(C4(CC#N)CN(C(=O)CO)C4)c3)n2)cn1 [TDM-180786] |
| 0.1 to 1 µM | 0.1 to 1 µM | COC(=O)CS(=O)(=O)N1CC(CC#N)(n2cc(-c3ccnc(Nc4cnn(C)c4)n3)cn2)C1 [TDM-180930] |
| 1 to 10 µM | 1 to 10 µM | Cn1cc(Nc2nccc(-c3ccn(C4(CC#N)CN(C(=O)CC#N)C4)n3)n2)cn1 [TDM-180861, 3-(3-(cyanomethyl)-3-(3-(2-((1-methyl-1H-pyrazol-4-yl)amino)pyrimidin-4-yl)-1H-pyrazol-1-yl)azetidinpiperazin-1-yl)-3-oxypropionitrile] |
| 0.1 to 1 µM | 0.1 to 1 µM | Cn1cc(Nc2nccc(-c3cnn(C4(CC#N)CN(S(=O)(=O)CCCCl)C4)c3)n2)cn1 [TDM-180925, 2-(1-((3-chloropropyl)sulfonyl)-3-(4-(2-((1-methyl-1H-pyrazol-4-yl)amino)pyrimidin-4-yl)-1H-pyrazol-1-yl)azetidin-3-yl)acetonitrile] |
| 0.1 to 1 µM | 0.1 to 1 µM | Cn1cc(Nc2nccc(-c3ccn(C4(CC#N)CN(C(=O)CC(F)(F)F)C4)n3)n2)cn1 [TDM-180860, 2-(3-(3-(2-((1-methyl-1H-pyrazol-4-yl)amino)pyrimidin-4-yl)-1H-pyrazol-1-yl)-1-(3,3,3-trifluoropropionyl)azetidin-3-yl)acetonitrile] |
| 1 to 10 µM | 1 to 10 µM | COCC(=O)N1CC(CC#N)(n2ccc(-c3ccnc(Nc4cnn(C)c4)n3)c2)C1 [TDM-180769, 2-(1-(2-methoxyacetyl)-3-(3-(2-((1-methyl-1H-pyrazol-4-yl)amino)pyrimidin-4-yl)-1H-pyrrol-1-yl)azetidin-3-yl)acetonitrile] |
| 1 to 10 µM | 1 to 10 µM | Cn1cc(Nc2nccc(-c3ccc(C4(CC#N)CN(C(=O)C5CC5)C4)cc3)n2)cn1 [TDM-180880, 2-(1-(cyclopropanecarbonyl)-3-(4-(2-((1-methyl-1H-pyrazol-4-yl)amino)pyrimidin-4-yl)phenyl)azetidin-3-yl)acetonitrile] |
| 1 to 10 µM | 1 to 10 µM | Cn1cc(Nc2nccc(-c3cnn(C4(CC#N)CN(C(=O)CO)C4)c3)n2)cn1 [TDM-180810, 2-(1-(2-hydroxyacetyl)-3-(4-(2-((1-methyl-1H-pyrazol-4-yl)amino)pyrimidin-4-yl)-1H-pyrazol-1-yl)azetidin-3-yl)acetonitrile] |
| 0.1 to 1 µM | 0.1 to 1 µM | COC(=O)CCS(=O)(=O)N1CC(CC#N)(n2cc(-c3ccnc(Nc4cnn(C)c4)n3)cn2)C1 [TDM-180927, Ethyl methyl-3-((3-(cyanomethyl)-3-(4-(2-((1-methyl-1H-pyrazol-4-yl)amino)pyrimidin-4-yl)-1H-pyrazol-1-yl)azetidineazetidin-1-yl)sulfonyl)propionate] |
| 0.1 to 1 µM | 0.1 to 1 µM | Cn1cc(Nc2nccc(-c3ccc(C4(CC#N)CN(C(=O)C5CC5(F)F)C4)cc3)n2)cn1 (stereo not drawn) [TDM-180872, 2-(1-(2,2-difluorocyclo-1-carbonyl)-3-(4-(2-((1-methyl-1H-pyrazol-4-yl)amino)pyrimidin-4-yl)phenyl)azetidin-3-yl)acetonitrile] |
| 1 to 10 µM | 0.1 to 1 µM | CCCS(=O)(=O)N1CC(CC#N)(n2ccc(-c3ccnc(Nc4cnn(C)c4)n3)n2)C1 [TDM-180916, 2-(3-(3-(2-((1-methyl-1H-pyrazol-4-yl)amino)pyrimidin-4-yl)-1H-pyrazol-1-yl)-1-(propylsulfonyl)azacyclobutanpyridin-3-yl)acetonitrile] |
| 0.1 to 1 µM | 0.1 to 1 µM | Cn1cc(Nc2nccc(-c3ccn(C4(CC#N)CN(C(=O)C5CC5(F)F)C4)n3)n2)cn1 (stereo not drawn) [TDM-180859, 2-(1-(2,2-difluorcyclopropanecarbonyl)-3-(3-(2-((1-methyl-1H-pyrazol-4-yl)amino)pyrimidin-4-yl)-1H-pyrazol-1-yl)azetidin-3-yl)acetonitrile] |
| 0.1 to 1 µM | 0.1 to 1 µM | CC(C)S(=O)(=O)N1CC(CC#N)(n2cc(-c3ccnc(Nc4cnn(C)c4)n3)cn2)C1 [TDM-180932, 2-(1-(isopropylsulfonyl)-3-(4-(2-((1-methyl-1H-pyrazol-4-yl)amino)pyrimidin-4-yl)-1H-pyrazol-1-yl)azetidinpyridin-3-yl)acetonitrile] |

From US12509447B2, “Small molecule compound” (Technoderma Medicines Pte Ltd, priority 2019, dated 2025)
